From PMC10831071, “Reaction hijacking inhibition of Plasmodium falciparum asparagine tRNA synthetase” (Nature Communications, 2024)
“And” between values parts separate entries of the source, which are not always exact repeats. Identical values can stand only once. Like-named read-outs stand apart in the source and are kept apart here.

How the values were obtained:
Assay in all cases: microbe, parasite or virus in culture
Assay type in all cases: cell-based, Plasmodium falciparum
[1] = test system: PfAlaRS cKD P. falciparum line; details: for Growth: PfAlaRS K/D; for IC50: PfAlaRS line, individual repeats
Excerpt: (§1) Conditional knockdown (cKD) P. falciparum lines were generated for the cytosolic AsnRS (PF3D7_0211800), cytosolic AlaRS (PF3D7_1367700), cytosolic GlyRS (GlyRS; PF3D7_1420400), PfNT4 (PF3D7_0103200), P. falciparum glutamate dehydrogenase 3 (GDH3; PF3D7_0802000), and P. falciparum carbonic anhydrase (CA, PF3D7_1140000) by fusing the coding sequences and non-coding RNA aptamer sequences in the 3’-UTR, permitting translation regulation using the TetR-DOZI system[59],[60]. Gene editing was achieved by CRISPR/SpCas9 using the linear pSN054 vector that contains cloning sites for the left homology region (LHR) and the right homology region (RHR) as well a target-specific guide RNA under control of the T7 promoter. Cloning into the pSN054 donor vector was carried out following described procedures[59],[60]. The vector includes V5-2xHA epitope tags, a 10x tandem array of TetR aptamers upstream of an Hsp86 3’UTR, and a multicistronic cassette for expression of TetR-DOZI (translation regulation), blasticidin S-deaminase (selection marker) and a Renilla luciferase (RLuc) reporter. All primer and synthetic fragment sequences that were generated using the BioXP™ system and IDT gBlocks™ are included in Supplementary Table 9. The final constructs were sequence-verified and further confirmed by restriction digests.
(§2) Transfection into Cas9- and T7 RNA polymerase-expressing NF54 parasites was carried out by pre-loading red blood cells (RBCs) with the donor vector[61]. […] Cultures were monitored by Giemsa smears and RLuc measurements.
(§3) DMSO- and dihydroartemisinin-treatment (0.5 µM) served as reference controls.

[2] = test system: PfAsnRS cKD P. falciparum line; details: for growth after 72 h exposure, normalised to no drug: PfAsnRS K/D, replicates
Excerpt: as §1, §2, §3

[3] = test system: PfCA cKD P. falciparum line; details: PfCA K/D
Excerpt: as §1, §2, §3

Nc1ncnc2cc(-c3cccc(S(N)(=O)=O)c3)sc12 [OSM-S-106]
Growth ([1]; 3.125 nM OSM-S-106, 500 nM aTc): 106.745 and 98.2451 and 120.926 | Growth ([1]; 6.25 nM OSM-S-106, 500 nM aTc): 90.3733 and 84.6837 and 109.578 | Growth ([1]; 12.5 nM OSM-S-106, 500 nM aTc): 88.5694 and 88.7266 and 97.0041 | Growth ([1]; 25 nM OSM-S-106, 500 nM aTc): 83.1875 and 95.5017 and 98.3659 | Growth ([1]; 50 nM OSM-S-106, 500 nM aTc): 55.6885 and 91.3478 and 80.2088 | Growth ([1]; 200 nM OSM-S-106, 500 nM aTc): 76.3648 | Growth ([1]; 200 nM OSM-S-106, […] aTc): 67.5946 | IC50 ([1]; 1 nM, […] aTc or no aTc): 46.2 nM | IC50 ([1]; 500 nM aTc): 99.7 nM | IC50 ([1]; Plasmodium falciparum, 1 nM, […] aTc or no aTc): 56.8 nM | IC50 ([1]; Plasmodium falciparum, 500 nM aTc): 78.4 nM | growth after 72 h exposure, normalised to no drug ([2]; 1 nM aTc, 3.125 nM): 100 (2×) and 98.2196 | growth after 72 h exposure, normalised to no drug ([2]; 1 nM aTc, 6.25 nM): 101.298 and 95.7154 and 83.7406 | growth after 72 h exposure, normalised to no drug ([2]; 1 nM aTc, 12.5 nM): 113.486 and 107.859 and 50.8034 | growth after 72 h exposure, normalised to no drug ([2]; 1 nM aTc, 25 nM): 72.3501 and 87.3666 and 36.7561 | growth after 72 h exposure, normalised to no drug ([2]; 1 nM aTc, 50 nM): 8.286 and 14.406 and 55.7128 | growth after 72 h exposure, normalised to no drug ([2]; 1 nM aTc, 100 nM): 12.9721 and 14.646 and 33.4758 | growth after 72 h exposure, normalised to no drug ([2]; 1 nM aTc, 200 nM): 2.187 and 4.184 and 3.619 | growth after 72 h exposure, normalised to no drug ([2]; 1 nM aTc, 400 nM): 0.0118 and 0.3256 and 1.407 | growth after 72 h exposure, normalised to no drug ([2]; 1 nM aTc, 800 nM): 0 (2×) and 0.3116 | growth after 72 h exposure, normalised to no drug ([2]; 1 nM aTc, […]): 95.5045 | growth after 72 h exposure, normalised to no drug ([2]; 500 nM aTc, 3.125 nM): 100 (2×) and 130.484 | growth after 72 h exposure, normalised to no drug ([2]; 500 nM aTc, 6.25 nM): 102.095 and 95.7689 and 98.7064 | growth after 72 h exposure, normalised to no drug ([2]; 500 nM aTc, 12.5 nM): 106.159 and 101.462 and 104.967 | growth after 72 h exposure, normalised to no drug ([2]; 500 nM aTc, 25 nM): 108.223 and 97.6665 and 110.496 | growth after 72 h exposure, normalised to no drug ([2]; 500 nM aTc, 50 nM): 109.874 and 96.9998 and 112.12 | growth after 72 h exposure, normalised to no drug ([2]; 500 nM aTc, 100 nM): 74.5373 and 61.9971 and 57.4067 | growth after 72 h exposure, normalised to no drug ([2]; 500 nM aTc, 200 nM): 13.0647 and 13.1882 and 56.7167 | growth after 72 h exposure, normalised to no drug ([2]; 500 nM aTc, 400 nM): 1.083 and 1.38 and 11.7035 | growth after 72 h exposure, normalised to no drug ([2]; 500 nM aTc, 800 nM): 0 (2×) and 1.573 | growth after 72 h exposure, normalised to no drug ([2]; 500 nM aTc, […]): 123.179 | IC50 ([2]; PfAsnRS line, 500 nM aTc, individual repeats): 116 nM and 175 nM | IC50 ([2]; Plasmodium falciparum, PfAsnRS line, 500 nM aTc, individual repeats): 123 nM | IC50 ([2]; Plasmodium falciparum, read-out: Mean IC50 with 500 nM aTc, PfAsnRS line, 500 nM aTc): 140 nM | IC50 ([2]; Plasmodium falciparum, read-out: Mean IC50 with low (1 or […])/ no aTc, PfAsnRS knockdown, low aTc): 26 nM | Growth ([3]; 3.125 nM OSM-S-106, 500 nM aTc): 126.787 and 158.672 and 147.974 | Growth ([3]; 3.125 nM OSM-S-106, no aTc): 126.423 and 113.544 and 101.394 | Growth ([3]; 6.25 nM OSM-S-106, 500 nM aTc): 92.3654 and 131.4 and 126.99 | Growth ([3]; 6.25 nM OSM-S-106, no aTc): 110.949 and 103.392 and 134.667 | Growth ([3]; 12.5 nM OSM-S-106, 500 nM aTc): 103.771 and 150.344 and 136.72 | Growth ([3]; 12.5 nM OSM-S-106, no aTc): 107.898 and 113.66 and 101.587 | Growth ([3]; 25 nM OSM-S-106, 500 nM aTc): 66.7109 and 104.005 and 106.363 | Growth ([3]; 25 nM OSM-S-106, no aTc): 55.2693 and 67.1039 and 67.9395 | Growth ([3]; 50 nM OSM-S-106, 500 nM aTc): 39.8979 and 23.9771 and 45.5735 | Growth ([3]; 50 nM OSM-S-106, no aTc): 31.2463 and 15.9234 and 30.4793 | Growth ([3]; 100 nM OSM-S-106, 500 nM aTc): 11.4398 | Growth ([3]; 100 nM OSM-S-106, no aTc): 10.8379 and 9.475 and 12.418 | Growth ([3]; 200 nM OSM-S-106, 500 nM aTc): 5.818 and 8.3279 and 9.44
